For series [1], the system named is Mus musculus. Put plainly: Effect on DSS-induced body weight loss in ulcerative colitis male C57BL/6J mouse model at 100 mg/kg, po administered for 8 days. Format: functional, organism-based. To be noted: time 8.0 day.
In series [2] the test system is Mus musculus. Nature of the series: Antiinflammatory activity against DSS-induced ulcerative colitis C57BL/6J mouse model assessed as increase in OCCLUDIN protein level in colon at 15 mg/kg, po administered for 8 days by Western blot analysis. To be noted: time 8.0 day. Format: functional, organism-based. (A western blot detects proteins with antibodies after separation by electrophoresis.)

Series [3] concerns RAW264.7. Put plainly: Antiinflammatory activity in LPS-induced mouse RAW264.7 cells assessed as reduction in IL-1beta mRNA expression level at 20 uM by qRT-PCR analysis. Format: functional, cell-based. On the technique in general: Quantitative PCR measures a nucleic acid by following its amplification.
The target of series [4] is Transcription factor p65 (Mus musculus) (UniProt Q04207). Nature of the series: Inhibition of p65 activation in LPS-induced mouse RAW264.7 cells at 20 uM by Western blot analysis. Format: cell-based.
Transcription factor p65 (Mus musculus), sequence (Q04207 whole entry): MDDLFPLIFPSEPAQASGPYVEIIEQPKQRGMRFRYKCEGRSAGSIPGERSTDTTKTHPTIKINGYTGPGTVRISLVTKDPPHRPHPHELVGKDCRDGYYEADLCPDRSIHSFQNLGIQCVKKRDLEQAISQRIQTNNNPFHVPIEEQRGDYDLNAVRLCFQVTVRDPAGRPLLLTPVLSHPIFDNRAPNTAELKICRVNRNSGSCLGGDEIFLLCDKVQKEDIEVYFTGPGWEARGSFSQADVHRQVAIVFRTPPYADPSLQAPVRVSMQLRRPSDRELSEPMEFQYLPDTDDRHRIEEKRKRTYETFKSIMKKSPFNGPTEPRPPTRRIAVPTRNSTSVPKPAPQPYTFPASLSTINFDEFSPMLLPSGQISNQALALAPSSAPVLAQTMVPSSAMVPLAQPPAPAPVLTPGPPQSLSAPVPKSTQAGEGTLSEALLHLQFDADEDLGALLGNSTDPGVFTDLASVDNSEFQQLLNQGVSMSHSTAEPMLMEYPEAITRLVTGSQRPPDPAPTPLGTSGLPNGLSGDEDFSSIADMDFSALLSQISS
Series [5] relates to RAW264.7. Put plainly: Inhibition of P38 phosphorylation in LPS-induced mouse RAW264.7 cells at 20 uM by Western blot analysis. The class given is cell-based.
Series [6] relates to Mus musculus. Put plainly: Antiinflammatory activity against DSS-induced ulcerative colitis C57BL/6J mouse model assessed as increase in […] protein level in colon at 15 mg/kg, po administered for 8 days by Western blot analysis. Conditions: time 8.0 day. The class given is functional, organism-based.
Series [7] has as its system Mus musculus. Put plainly: Antiinflammatory activity against DSS-induced ulcerative colitis C57BL/6J mouse model assessed as reduction in inflammatory cell infiltration in colon at 15 mg/kg, po administered for 8 days by Hand E staining based histopathological analysis. Format: functional, organism-based. To be noted: time 8.0 day.
For series [8], the system named is RAW264.7. Nature of the series: Inhibition of NF-kappaB transcriptional activity in LPS-induced mouse RAW264.7 cells at 20 uM by luciferase based assay. Format: cell-based.
For series [9], the system named is Mus musculus. Put plainly: Antiinflammatory activity against DSS-induced ulcerative colitis C57BL/6J mouse model assessed as reduction in H and E histopathological score at 15 mg/kg, po administered for 8 days by H and E staining based analysis. Format: functional, organism-based. Conditions: time 8.0 day.
Series [10] relates to Mus musculus. Nature of the series: Antiinflammatory activity against DSS-induced ulcerative colitis C57BL/6J mouse model assessed as reduction in IL-1beta mRNA expression level in colon at 15 mg/kg, po administered for 8 days by qRT-PCR analysis. Format: functional, organism-based. Conditions: time 8.0 day.
Series [11] relates to Mus musculus. Nature of the series: Antiinflammatory activity against DSS-induced ulcerative colitis C57BL/6J mouse model assessed as reduction in intestinal epithelial destruction in colon at 15 mg/kg, po administered for 8 days by Hand E staining based histopathological analysis. Format: functional, organism-based. Conditions: time 8.0 day.
The test system of series [12] is RAW264.7. Nature of the series: Antiinflammatory activity in mouse RAW264.7 cells assessed as inhibition of LPS-induced NO production at 20 uM incubated for 24 hrs relative to control. The class given is functional.
Series [13] has as its system Mus musculus. Put plainly: Antiinflammatory activity against DSS-induced ulcerative colitis C57BL/6J mouse model assessed as increase in CLAUDIN-1 protein level in colon at 15 mg/kg, po administered for 8 days by Western blot analysis. The class given is functional, organism-based. To be noted: time 8.0 day.
Series [14] has as its system RAW264.7. Put plainly: Antiinflammatory activity in LPS-induced mouse RAW264.7 cells assessed as inhibition of TNF-alpha production at 20 uM by ELISA. The class given is functional, cell-based. Background: In an ELISA, binding on a coated surface is turned into a signal by an enzyme label.
Series [15] concerns Mus musculus. Put plainly: Antiinflammatory activity against DSS-induced ulcerative colitis C57BL/6J mouse model assessed as reduction in Ccl2 mRNA expression level in colon at 15 mg/kg, po administered for 8 days by qRT-PCR analysis. The class given is functional, organism-based. Conditions: time 8.0 day.
Series [16] has as its target c-Jun N-terminal kinase (Mus musculus) (UniProt Q91Y86+Q9WTU6+Q61831). Nature of the series: Inhibition of JNK phosphorylation in LPS-induced mouse RAW264.7 cells at 20 uM by Western blot analysis. Format: cell-based.
Series [17] has as its system RAW264.7. Nature of the series: Antiinflammatory activity in LPS-induced mouse RAW264.7 cells assessed as reduction in iNOS mRNA expression level at 20 uM by qRT-PCR analysis. Format: functional, cell-based.
Series [18] deals with RAW264.7. Nature of the series: Antiinflammatory activity in LPS-induced mouse RAW264.7 cells assessed as inhibition of IL-6 production at 20 uM by ELISA. The class given is functional, cell-based.
The test system of series [19] is RAW264.7. Nature of the series: Antiinflammatory activity in mouse RAW264.7 cells assessed as inhibition of LPS-induced NO production incubated for 24 hrs. The class given is functional, cell-based. Conditions: RAW264.7, 24 h.
Series [20] has as its system RAW264.7. Put plainly: Antiinflammatory activity in LPS-induced mouse RAW264.7 cells assessed as reduction in IL-6 mRNA expression level at 20 uM by qRT-PCR analysis. The class given is functional, cell-based.
Series [21] can be described thus: Cytotoxicity against mouse RAW264.7 cells assessed as cell viability at 20 uM incubated for 24 hrs by CCK8 assay relative to control. The class given is toxicity, cell-based. To be noted: read-out: Activity.
For series [22], the system named is Mus musculus. Nature of the series: Effect on DSS-induced body weight loss in ulcerative colitis male C57BL/6J mouse model at 15 mg/kg, po administered for 8 days. The class given is functional, organism-based. To be noted: time 8.0 day.
Series [23] relates to Mus musculus. Put plainly: Antiinflammatory activity against DSS-induced ulcerative colitis C57BL/6J mouse model assessed as reduction in TNF-alpha mRNA expression level in colon at 15 mg/kg, po administered for 8 days by qRT-PCR analysis. Format: functional, organism-based. Conditions: time 8.0 day.
The test system of series [24] is Mus musculus. Put plainly: Antiinflammatory activity against DSS-induced ulcerative colitis C57BL/6J mouse model assessed as reduction in iNOS mRNA expression level in colon at 15 mg/kg, po administered for 8 days by qRT-PCR analysis. Format: functional, organism-based. Conditions: time 8.0 day.
Series [25] deals with RAW264.7. Put plainly: Inhibition of ERK phosphorylation in LPS-induced mouse RAW264.7 cells at 20 uM by Western blot analysis. Format: cell-based.
For series [26], the system named is Mus musculus. Nature of the series: Antiinflammatory activity against DSS-induced ulcerative colitis C57BL/6J mouse model assessed as reduction in goblet cell loss in colon at 15 mg/kg, po administered for 8 days by alcian blue staining based analysis. The class given is functional, organism-based. To be noted: time 8.0 day.
The test system of series [27] is RAW264.7. Nature of the series: Antiinflammatory activity in LPS-induced mouse RAW264.7 cells assessed as reduction in TNF-alpha mRNA expression level at 20 uM by qRT-PCR analysis. The class given is functional, cell-based.
The subject of series [28] is Mus musculus. Nature of the series: Antiinflammatory activity against DSS-induced ulcerative colitis C57BL/6J mouse model assessed as reduction in DAI score at 15 mg/kg, po administered for 8 days. The class given is functional, organism-based. To be noted: time 8.0 day.
Series [29] concerns RAW264.7. Put plainly: Antiinflammatory activity in LPS-induced mouse RAW264.7 cells assessed as reduction in Ccl2 gene expression by heat map analysis. The class given is functional, cell-based.
Series [30] has as its system RAW264.7. Put plainly: Antiinflammatory activity in LPS-induced mouse RAW264.7 cells assessed as reduction in IL-1beta gene expression by heat map analysis. The class given is functional, cell-based.
For series [31], the system named is RAW264.7. Put plainly: Antiinflammatory activity in LPS-induced mouse RAW264.7 cells assessed as reduction in Ccl7 gene expression by heat map analysis. Format: functional, cell-based.
In series [32] the test system is RAW264.7. Put plainly: Antiinflammatory activity in LPS-induced mouse RAW264.7 cells assessed as reduction in Cxcl10 gene expression by heat map analysis. The class given is functional, cell-based.
Series [33] concerns RAW264.7. Nature of the series: Antiinflammatory activity in LPS-induced mouse RAW264.7 cells assessed as reduction in IL-6 gene expression by heat map analysis. Format: functional, cell-based.

Calls of active or inactive are those of the source. The rule behind the calls is not given here.

c-Jun N-terminal kinase (Mus musculus), sequence (Q61831 whole entry, looked up): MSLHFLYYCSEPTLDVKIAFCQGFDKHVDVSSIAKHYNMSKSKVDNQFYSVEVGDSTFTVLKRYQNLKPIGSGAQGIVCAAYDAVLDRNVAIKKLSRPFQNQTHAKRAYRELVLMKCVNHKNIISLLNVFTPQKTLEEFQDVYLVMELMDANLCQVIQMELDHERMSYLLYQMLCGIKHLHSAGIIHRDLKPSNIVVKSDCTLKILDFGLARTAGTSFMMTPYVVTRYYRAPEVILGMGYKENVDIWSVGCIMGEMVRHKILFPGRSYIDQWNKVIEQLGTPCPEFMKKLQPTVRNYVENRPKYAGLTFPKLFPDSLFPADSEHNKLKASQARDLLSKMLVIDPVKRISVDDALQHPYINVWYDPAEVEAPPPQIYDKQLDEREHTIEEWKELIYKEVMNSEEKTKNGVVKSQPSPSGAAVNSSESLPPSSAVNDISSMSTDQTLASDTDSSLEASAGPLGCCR
c-Jun N-terminal kinase (Mus musculus), sequence (Q91Y86 whole entry, looked up): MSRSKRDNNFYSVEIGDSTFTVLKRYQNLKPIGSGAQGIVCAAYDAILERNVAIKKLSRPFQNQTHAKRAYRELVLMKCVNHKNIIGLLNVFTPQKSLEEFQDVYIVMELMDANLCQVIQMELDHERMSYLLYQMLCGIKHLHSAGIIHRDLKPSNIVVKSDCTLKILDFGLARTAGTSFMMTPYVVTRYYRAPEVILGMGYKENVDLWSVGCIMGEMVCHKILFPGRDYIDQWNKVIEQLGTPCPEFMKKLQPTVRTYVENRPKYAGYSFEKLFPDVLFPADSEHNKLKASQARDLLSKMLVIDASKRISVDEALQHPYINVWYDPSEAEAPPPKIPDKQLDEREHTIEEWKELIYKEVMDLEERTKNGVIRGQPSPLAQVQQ
c-Jun N-terminal kinase (Mus musculus), sequence (Q9WTU6 whole entry, looked up): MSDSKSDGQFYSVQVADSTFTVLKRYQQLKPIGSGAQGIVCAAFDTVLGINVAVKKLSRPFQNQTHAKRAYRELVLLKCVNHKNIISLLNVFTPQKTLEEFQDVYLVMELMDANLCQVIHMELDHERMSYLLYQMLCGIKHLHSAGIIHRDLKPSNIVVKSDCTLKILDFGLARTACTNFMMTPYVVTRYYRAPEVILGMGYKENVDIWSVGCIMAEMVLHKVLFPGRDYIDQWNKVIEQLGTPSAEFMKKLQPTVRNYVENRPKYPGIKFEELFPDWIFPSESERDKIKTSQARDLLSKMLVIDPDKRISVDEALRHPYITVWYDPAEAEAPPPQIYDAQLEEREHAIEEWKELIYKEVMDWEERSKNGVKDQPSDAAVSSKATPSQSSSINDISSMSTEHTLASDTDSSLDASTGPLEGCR

For `Nc1ccc(O)c(C(=O)O)c1`, the result in the series with Mus musculus [1] was inactive.

Usually inhibition stands for the relative decrease from the control value, in per cent. For orientation: IC50 means the concentration needed to halve the response being measured. As for `C=C1C(=O)O[C@]2(C)CC[C@@H]1C[C@@H]1O[C@@]1(C)CC/C=C(\C)CC[C@H]2OC(C)=O`, the result with Mus musculus [2], with RAW264.7 [3], in the series with Mus musculus [6], with Mus musculus [7], in the series on Mus musculus [9] and in the series on Mus musculus [10] was Active. Moreover, the outcome with Mus musculus [11], in the series with Mus musculus [13], in the series with RAW264.7 [14], in the series with Mus musculus [15], in the series with RAW264.7 [17] and with RAW264.7 [18] was Active. For the same compound, the outcome in the series with RAW264.7 [20], in the series with Mus musculus [23], in the series on Mus musculus [24], with Mus musculus [26], in the series with RAW264.7 [27] and in the series on Mus musculus [28] was Active. Further, the inhibition entry (in [4]; in the series with RAW264.7 [8]; in series [16]; in the series on RAW264.7 [25]) was “Active” each time. Moreover, in the series on RAW264.7 [5], the inhibition result is “inactive”. The inhibition at 20 µM in the series on RAW264.7 [12] worked out at 139%. For the same compound, the IC50 in the series on RAW264.7 [19] amounted to 1150 nM. Moreover, the viability at 24 h, 20 µM in [21] amounted to 89%. Also, in the series with Mus musculus [22], the outcome was inactive.

`C=C1C(=O)O[C@]2(C)CC[C@@H]1C[C@@H]1O[C@@]1(C)CC/C=C(\C)CCC2=O`: the outcome in the series on Mus musculus [2], with RAW264.7 [3], with RAW264.7 [29], in the series on Mus musculus [6], in the series on Mus musculus [7] and in the series on RAW264.7 [30] was Active. Moreover, the outcome with Mus musculus [9], with Mus musculus [10], in the series on Mus musculus [11], with RAW264.7 [31], in the series on Mus musculus [13] and with RAW264.7 [14] was Active. Also, the result in the series with Mus musculus [15], with RAW264.7 [32], with RAW264.7 [17], with RAW264.7 [18], in the series on RAW264.7 [20] and in the series with Mus musculus [23] was Active. In addition, the outcome in the series on Mus musculus [24], with Mus musculus [26], in the series on RAW264.7 [27], with RAW264.7 [33] and in the series on Mus musculus [28] was Active. Also, the inhibition entry (in [4]; with RAW264.7 [8]; in series [16]; in the series on RAW264.7 [25]) was “Active” in each case. For the same compound, the inhibition result in the series with RAW264.7 [5] is “inactive”. For the same compound, the inhibition at 20 µM in the series on RAW264.7 [12] is 134%. The IC50 in the series on RAW264.7 [19] was determined as 900 nM. Also, the viability at 24 h, 20 µM in series [21] was determined as 82.7%. Moreover, in the series on Mus musculus [22], the outcome was inactive.
